Laboratory results taken from US20100105764A1 (priority 2006, published 2010).
Where two headings read alike, the source gives them in different places.

Tests used:
[1] = tested on: tumours derived from MCF 7STS cells; assay type: in vivo; settings: initial experiments, nude mice, FIG. 5
[2] = tested on: MCF-7STS+MCF-7AROM tumours; test: Study 1: MCF-7STS+MCF-7AROM tumour growth in nude mice; assay type: in vivo; settings: Study 1, A4 plus E2S stimulated; oral; letrozole 0.1 mg/kg, STX213 10 mg/kg p.o. 5/7 per week; FIG. 6
Protocol: (§1) Ovariectomised, athymic female MF-1 nude mice (nu/nu) (age 6-8 weeks) were obtained from Harlan Olac. Twenty four hours before the inoculation of MCF-7 cells animals were injected s.c. with androstenedione (A4) or estradiol sulfate (E2S). On the day of inoculation MCF-7 cells (50 μl in Matrigel) were injected s.c. into the flanks of mice. After cell inoculation mice were injected with A4 and E2S and received another injection of these steroids 24 h later. Mice then received A4 plus E2S 3 times per week until the end of the study. When tumours had reached approximately 80 mm^3 dosing was initiated with compounds being administered orally (100 μl; vehicle 10% THF: 90% propylene glycol). Tumour measurements and the weight of animals were recorded weekly.
(§2) MCF-7 cells were routinely cultured in RPMI with 10% FCS. The cDNAs for either the aromatase or STS were cloned into the pCl-Neo vector which contains the neomycin resistant gene and transfected into MCF-7 cells. Stable clones were selected using G418 and cell lines established and evaluated for enzyme expression and activity.
(§3) For this study MCF-7 cells over-expressing aromatase or STS were mixed and inoculated (5×10^6 cells) in Matrigel into the flanks of nude mice. A similar number of MCF-7WT cells were inoculated into the other flank. […]

MCF-7WT tumours = test: Study 1: MCF-7WT tumour growth in nude mice; assay type: in vivo; settings: Study 1, A4 plus E2S stimulated; oral; letrozole 0.1 mg/kg, STX213 10 mg/kg p.o. 5/7 per week; FIG. 6
Protocol: as §1, §2, §3

[3] = assay type: in vivo; settings: for toxic effects (animal growth): Study 1, FIG. 7
Protocol: as §1
For this study MCF-7 cells over-expressing aromatase or STS were mixed and inoculated (5×10^6 cells) in Matrigel into the flanks of nude mice. A similar number of MCF-7WT cells were inoculated into the other flank. For this study growth of tumours was stimulated by s.c. injection of A4 (50 μg) and E2S (50 μg) in 50 μl vehicle.

E1-STS [4] = molecular target: T1, E1-STS (Homo sapiens, UniProt P08842); settings: cited from earlier work
T1 sequence (P08842 22-583): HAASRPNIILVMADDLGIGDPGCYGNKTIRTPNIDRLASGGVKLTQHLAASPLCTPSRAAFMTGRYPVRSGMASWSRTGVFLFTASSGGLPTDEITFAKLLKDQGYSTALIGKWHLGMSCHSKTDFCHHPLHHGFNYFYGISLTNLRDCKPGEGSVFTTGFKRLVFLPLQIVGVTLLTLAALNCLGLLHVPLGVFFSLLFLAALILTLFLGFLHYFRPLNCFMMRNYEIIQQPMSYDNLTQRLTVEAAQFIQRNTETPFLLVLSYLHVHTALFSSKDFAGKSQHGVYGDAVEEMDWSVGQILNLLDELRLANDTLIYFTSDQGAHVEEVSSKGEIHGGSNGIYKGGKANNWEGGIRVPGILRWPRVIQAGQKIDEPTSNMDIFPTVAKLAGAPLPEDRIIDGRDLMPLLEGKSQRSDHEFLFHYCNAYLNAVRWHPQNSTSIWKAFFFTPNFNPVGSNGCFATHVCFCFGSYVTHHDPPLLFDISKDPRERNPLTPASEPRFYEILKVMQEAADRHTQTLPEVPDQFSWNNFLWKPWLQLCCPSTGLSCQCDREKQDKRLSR

[5] = molecular target: T2, dehydroepiandrosterone sulphatase (DHEA-STS) (Homo sapiens, UniProt P08842); settings: cited from earlier work
T2 sequence (P08842 22-583): T1 sequence (P08842 22-583)

E1-STS [6] = molecular target: T1, E1-STS; parameters: E1-STS activity in intact MCF-7 cells; endogenous in cells; host or cells: MCF-7 cells (intact); settings: intact MCF-7 cells, at 0.1 nM; cited from earlier work
[7] = rats; cited from earlier work
[8] = tested on: tumours derived from MCF-7AROM cells; test: Study 2: growth of tumours derived from MCF-7AROM cells in nude mice; assay type: in vivo; settings: Study 2, A4 plus E2S stimulated; oral administration; letrozole 0.1 mg/kg; FIGS. 9-11
Protocol: as §1, §2
(§4) This study was similar to the previous one with the exception that MCF-7STS or MCF-7AROM cells (1×10^7) were inoculated into different flanks of the same animals. The doses of A4 and E2S were increased to 100 μg for each compound.

[9] = assay type: in vivo, mice
Protocol: as §1, §4

[10] = tested on: tumours derived from MCF-7STS cells; test: Study 2: growth of tumours derived from MCF-7STS cells in nude mice; assay type: in vivo; settings: Study 2, A4 plus E2S stimulated; oral administration; letrozole 0.1 mg/kg; FIGS. 9-11
Protocol: as §1, §2, §4

[11] = Phase I trial: serum steroid levels; assay type: in vivo; settings: postmenopausal women with breast cancer
From the text: The assay for the determination of androstenedione, testosterone, E1 and E2 was the gas chromatographic tandem mass spectroscopic method of Wang et al., (2005). Recombinant cell ultra-sensitive bioassay for measurements of estrogens in postmenopausal women J Clin Endocrinol Metab 90: 1407-1413, 2005.
In addition to the aromatase pathway for the synthesis of estrogens in postmenopausal women, the sulfatase route is also important of the formation of steroids with potent estrogenic properties. Steroid sulfatase (STS) is responsible for the hydrolysis of estrone sulfate (E1S) and dehydroepiandrosterone sulfate (DHEAS) to estrone (E1) and DHEA respectively, which can be reduced in the body to estradiol (E2) and androstenediol (Adiol), both of which have potent estrogenic properties (FIGS. 3 & 4; reviewed in Reed et al., Endocrine Reviews, 256:171-202, 2005). […] This provides evidence for an aromatase independent pathway.

STS = molecular target: T3, STS (Homo sapiens, UniProt P08842); test: Phase I trial: STS activity in peripheral and tumour tissues; assay type: in vivo; settings: postmenopausal women with breast cancer
T3 construct: STS activity in peripheral and tumour tissues in postmenopausal women with breast cancer; from tissue; host or cells: peripheral and breast tumour tissues of patients
T3 sequence (P08842 22-583): T1 sequence (P08842 22-583)
From the text: In addition to the aromatase pathway for the synthesis of estrogens in postmenopausal women, the sulfatase route is also important of the formation of steroids with potent estrogenic properties. Steroid sulfatase (STS) is responsible for the hydrolysis of estrone sulfate (E1S) and dehydroepiandrosterone sulfate (DHEAS) to estrone (E1) and DHEA respectively, which can be reduced in the body to estradiol (E2) and androstenediol (Adiol), both of which have potent estrogenic properties (FIGS. 3 & 4; reviewed in Reed et al., Endocrine Reviews, 256:171-202, 2005).

Compound | growth of tumours derived from MCF 7STS cells [1] | growth of MCF-7STS+MCF-7AROM tumours [2] | growth of MCF-7WT tumours (MCF-7WT tumours) | toxic effects (animal growth) [3] | mode of E1-STS inhibition (inactivation) (E1-STS [4]) | growth of tumours derived from MCF-7AROM cells [8] | growth of tumours derived from MCF-7STS cells [10] | other results
CCCN1C(=O)CC2C3CCc4cc(OS(N)(=O)=O)ccc4C3CC[C@]2(C)C1=O (stereo partly shown) [STX213] | could be inhibited | significantly reduced the growth | significantly reduced the growth | Neither STX213 nor letrozole appeared to have any toxic effects |  |  |  | toxicity as shown by body weight ([3]; Study 1, at the dose tested, FIG. 7): devoid of any toxicity
oestrone-3-N-sulphamate |  |  |  |  | weaker non-time-dependent inactivators |  |  | 
oestrone-3-S-sulphamate |  |  |  |  | weaker non-time-dependent inactivators |  |  | 
CC12CCC3c4ccc(OS(N)(=O)=O)cc4CCC3C1CCC2=O (stereo not shown) [EMATE, oestrone-3-sulphamate] |  |  |  |  | time- and concentration-dependent manner |  |  | inhibition of DHEA-STS [5]: also inhibits; inhibition of E1-STS activity (E1-STS [6]): more than 99%; effect on memory [7]: memory enhancing effect
N#Cc1ccc(C(c2ccc(C#N)cc2)n2cncn2)cc1 [letrozole, reference compound] |  | some reduction of tumour growth | some reduction of tumour growth | Neither STX213 nor letrozole appeared to have any toxic effects |  | significant inhibition | did not affect the growth | tolerability, effects on animal weight ([9]; mouse, in vivo): well tolerated with no effects on animal weight
NS(=O)(=O)Oc1ccc2c3c(c(=O)oc2c1)CCCCC3 [STX64] | could be inhibited |  |  |  |  | significant inhibition | significant inhibition | tolerability, effects on animal weight ([9]; Study 2, FIG. 12): well tolerated with no effects on animal weight; levels of androstenedione [11]: reduced; levels of testosterone [11]: reduced; serum oestrogen concentrations [11]: reducing serum oestrogen concentrations; STS activity in peripheral and tumour tissues (STS): effectively blocked STS activity
